{"source": "ChEMBL document CHEMBL1201862", "about": "“PubChem BioAssay data set” (2004)", "experiment_in_all_cases": "inhibition of tumour cell growth, NCI panel, 48 h", "key": {"786-0": {"test_system": "786-0"}, "A549": {"test_system": "A549"}, "ACHN": {"test_system": "ACHN"}, "CAKI-1": {"test_system": "CAKI-1"}, "CCRF-CEM": {"test_system": "CCRF-CEM"}, "DLD-1": {"test_system": "DLD-1"}, "DMS-114": {"test_system": "DMS-114"}, "EKVX": {"test_system": "EKVX"}, "HCC 2998": {"test_system": "HCC 2998"}, "HCT-116": {"test_system": "HCT-116"}, "HCT-15": {"test_system": "HCT-15"}, "HL-60": {"test_system": "HL-60"}, "HOP-18": {"test_system": "HOP-18"}, "HOP-62": {"test_system": "HOP-62"}, "HOP-92": {"test_system": "HOP-92"}, "HT-29": {"test_system": "HT-29"}, "IGROV-1": {"test_system": "IGROV-1"}, "K562": {"test_system": "K562"}, "KM12": {"test_system": "KM12"}, "LOX IMVI": {"test_system": "LOX IMVI"}, "LXFL 529": {"test_system": "LXFL 529"}, "M14": {"test_system": "M14"}, "M19-MEL": {"test_system": "M19-MEL"}, "MOLT-4": {"test_system": "MOLT-4"}, "Malme-3M": {"test_system": "Malme-3M"}, "NCI-H226": {"test_system": "NCI-H226"}, "NCI-H23": {"test_system": "NCI-H23"}, "NCI-H460": {"test_system": "NCI-H460"}, "NCI-H522": {"test_system": "NCI-H522"}, "OVCAR-3": {"test_system": "OVCAR-3"}, "OVCAR-4": {"test_system": "OVCAR-4"}, "OVCAR-5": {"test_system": "OVCAR-5"}, "OVCAR-8": {"test_system": "OVCAR-8"}, "RPMI-8226": {"test_system": "RPMI-8226"}, "RXF 393": {"test_system": "RXF 393"}, "SF-268": {"test_system": "SF-268"}, "SF-295": {"test_system": "SF-295"}, "SF-539": {"test_system": "SF-539"}, "SK-MEL-28": {"test_system": "SK-MEL-28"}, "SK-MEL-2": {"test_system": "SK-MEL-2"}, "SK-MEL-5": {"test_system": "SK-MEL-5"}, "SK-OV-3": {"test_system": "SK-OV-3"}, "SN12C": {"test_system": "SN12C"}, "SNB-19": {"test_system": "SNB-19"}, "SNB-78": {"test_system": "SNB-78"}, "SW-620": {"test_system": "SW-620"}, "TK-10": {"test_system": "TK-10"}, "U-251": {"test_system": "U-251"}, "UACC-257": {"test_system": "UACC-257"}, "UACC-62": {"test_system": "UACC-62"}, "UO-31": {"test_system": "UO-31"}}, "note": "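These data come from cells grown in 96-well plates and exposed to compound for 48 hours at five concentrations. GI50 marks 50% less growth.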 Activity calls are given as the source filed them. Cut-off read from the data, not from the text of the source: active = GI50 up to about 1.1 µM and inactive = higher.", "data": [{"smiles": "O=[N+]([O-])c1ccc(/C=C/c2csnn2)cc1", "values": [{"measurement": "GI50", "setting": "786-0", "result": "> 100 µM (inactive)"}, {"measurement": "GI50", "setting": "A549", "result": "> 100 µM (inactive)"}, {"measurement": "GI50", "setting": "ACHN", "result": "> 100 µM (inactive)"}, {"measurement": "GI50", "setting": "CAKI-1", "result": "> 100 µM (inactive)"}, {"measurement": "GI50", "setting": "CCRF-CEM", "result": "> 100 µM (inactive)"}, {"measurement": "GI50", "setting": "DLD-1", "result": "> 100 µM (inactive)"}, {"measurement": "GI50", "setting": "DMS-114", "result": "> 100 µM (inactive)"}, {"measurement": "GI50", "setting": "EKVX", "result": "> 100 µM (inactive)"}, {"measurement": "GI50", "setting": "HCC 2998", "result": "> 100 µM (inactive)"}, {"measurement": "GI50", "setting": "HCT-116", "result": "> 100 µM (inactive)"}, {"measurement": "GI50", "setting": "HCT-15", "result": "> 100", "unit": "µM"}, {"measurement": "GI50", "setting": "HL-60", "result": "> 100 µM (inactive)"}, {"measurement": "GI50", "setting": "HOP-18", "result": "> 100 µM (inactive)"}, {"measurement": "GI50", "setting": "HOP-62", "result": "> 100 µM (inactive)"}, {"measurement": "GI50", "setting": "HOP-92", "result": "70.5 µM (inactive)"}, {"measurement": "GI50", "setting": "HT-29", "result": "> 100 µM (inactive)"}, {"measurement": "GI50", "setting": "IGROV-1", "result": "> 100 µM (inactive)"}, {"measurement": "GI50", "setting": "K562", "result": "> 100 µM (inactive)"}, {"measurement": "GI50", "setting": "KM12", "result": "> 100 µM (inactive)"}, {"measurement": "GI50", "setting": "LOX IMVI", "result": "> 100 µM (inactive)"}, {"measurement": "GI50", "setting": "LXFL 529", "result": "> 100 µM (inactive)"}, {"measurement": "GI50", "setting": "M14", "result": "> 100 µM (inactive)"}, {"measurement": "GI50", "setting": "M19-MEL", "result": "> 100 µM (inactive)"}, {"measurement": "GI50", "setting": "MOLT-4", "result": "> 100 µM (inactive)"}, {"measurement": "GI50", "setting": "Malme-3M", "result": "> 100 µM (inactive)"}, {"measurement": "GI50", "setting": "NCI-H226", "result": "> 100 µM (inactive)"}, {"measurement": "GI50", "setting": "NCI-H23", "result": "> 100 µM (inactive)"}, {"measurement": "GI50", "setting": "NCI-H460", "result": "> 100 µM (inactive)"}, {"measurement": "GI50", "setting": "NCI-H522", "result": "> 100 µM (inactive)"}, {"measurement": "GI50", "setting": "OVCAR-3", "result": "> 100 µM (inactive)"}, {"measurement": "GI50", "setting": "OVCAR-4", "result": "> 100 µM (inactive)"}, {"measurement": "GI50", "setting": "OVCAR-5", "result": "> 100 µM (inactive)"}, {"measurement": "GI50", "setting": "OVCAR-8", "result": "> 100 µM (inactive)"}, {"measurement": "GI50", "setting": "RPMI-8226", "result": "> 100 µM (inactive)"}, {"measurement": "GI50", "setting": "RXF 393", "result": "> 100 µM (inactive)"}, {"measurement": "GI50", "setting": "SF-268", "result": "> 100 µM (inactive)"}, {"measurement": "GI50", "setting": "SF-295", "result": "> 100 µM (inactive)"}, {"measurement": "GI50", "setting": "SF-539", "result": "> 100 µM (inactive)"}, {"measurement": "GI50", "setting": "SK-MEL-28", "result": "> 100 µM (inactive)"}, {"measurement": "GI50", "setting": "SK-MEL-2", "result": "> 100 µM (inactive)"}, {"measurement": "GI50", "setting": "SK-MEL-5", "result": "> 100 µM (inactive)"}, {"measurement": "GI50", "setting": "SK-OV-3", "result": "> 100 µM (inactive)"}, {"measurement": "GI50", "setting": "SN12C", "result": "> 100 µM (inactive)"}, {"measurement": "GI50", "setting": "SNB-19", "result": "> 100 µM (inactive)"}, {"measurement": "GI50", "setting": "SNB-78", "result": "> 100 µM (inactive)"}, {"measurement": "GI50", "setting": "SW-620", "result": "> 100 µM (inactive)"}, {"measurement": "GI50", "setting": "TK-10", "result": "> 100 µM (inactive)"}, {"measurement": "GI50", "setting": "U-251", "result": "> 100 µM (inactive)"}, {"measurement": "GI50", "setting": "UACC-257", "result": "> 100 µM (inactive)"}, {"measurement": "GI50", "setting": "UACC-62", "result": "> 100 µM (inactive)"}, {"measurement": "GI50", "setting": "UO-31", "result": "> 100 µM (inactive)"}]}]}
